The source of these data is PMC9227586, “UHPLC-MS Metabolomic Fingerprinting, Antioxidant, and Enzyme Inhibition Activities of Himantormia lugubris from Antarctica” (Metabolites, 2022).

Test [1] in a line: Ferric-reducing antioxidant power assay (FRAP). To be noted: absorbance at 593 nm after 5 min. On the procedure: The FRAP test was performed as described previously. A standard curve of the antioxidant Trolox was plotted, then the measurement was performed with 290 µL of extract and its absorbance was measured at 593 nm after 5 min. The results were expressed in mg of Trolox equivalent per g of dry lichen. The experiments were performed in triplicate and the values are expressed as the mean ± SD.

A short description of test [2]: Oxygen radical absorbance capacity (ORAC) assay. The protocol: The ORAC assay was performed as previously described. Quantification was performed using a standard curve of the antioxidant Trolox, then the measurement was performed using a solution of the Trolox, blank, and 40 µL of extract in different wells of the microplate reader. The results were obtained by constructing the equations (Trolox/samples vs. fluorescence decay curves) and expressed in μmol Trolox equivalents per grams of dry lichen. The tests were performed in triplicate and the results are reported as the mean ± SD.

A short description of test [3]: DPPH scavenging activity. Conditions: bleaching of DPPH at 515 nm after 30 min. The protocol: The potential bleaching of the radical DPPH, using a Synergy HTX microplate reader, was determined by mixing 50 µL of extract or standard with 150 µL of DPPH solution; the determinations were made in triplicate by monitoring the bleaching of DPPH at 515 nm after 30 min of reaction. The results are expressed as IC50 in µg of standard or extract per mL. The data are reported as the mean ± SD.
On the technique in general: DPPH is a stable violet radical that fades when it is reduced.

Test [4] addresses T1, acetylcholinesterase (AChE, EC 3.1.1.7) (Homo sapiens, UniProt P22303).
T1 construct: purchased Sigma (St. Louis, MO, USA)
The test can be described thus: biochemical. Conditions: 37 °C. The protocol: (§1) Inhibition of AChE activity was determined according to the Ellman method, as previously reported. The samples (2 mg/mL) were prepared by mixing tris-HCl buffer (50 mM, pH 8.0), enzyme solution (AChE or BChE), and 5-dithio-bis (2-nitrobenzoic acid) (DTNB) at pH 8.0. The reaction was started by adding acetyl-thiocholine iodide (ATCI) or butyryl-thiocholine chloride (BTCl). The absorbance of the extract was measured at 405 nm for 30 min at 37 °C. Three experiments were performed in triplicate in each test and the values are reported as the mean ± SD. The results were expressed as IC50 (µg/mL, the final concentration of the plate ranged from 0.05 to 25 μg/mL).

Test [5] deals with T2, butyrylcholinesterase (BChE, EC 3.1.1.8) (Homo sapiens, UniProt P06276).
T2 construct: purchased Sigma (St. Louis, MO, USA)
T2 sequence (P06276 29-602): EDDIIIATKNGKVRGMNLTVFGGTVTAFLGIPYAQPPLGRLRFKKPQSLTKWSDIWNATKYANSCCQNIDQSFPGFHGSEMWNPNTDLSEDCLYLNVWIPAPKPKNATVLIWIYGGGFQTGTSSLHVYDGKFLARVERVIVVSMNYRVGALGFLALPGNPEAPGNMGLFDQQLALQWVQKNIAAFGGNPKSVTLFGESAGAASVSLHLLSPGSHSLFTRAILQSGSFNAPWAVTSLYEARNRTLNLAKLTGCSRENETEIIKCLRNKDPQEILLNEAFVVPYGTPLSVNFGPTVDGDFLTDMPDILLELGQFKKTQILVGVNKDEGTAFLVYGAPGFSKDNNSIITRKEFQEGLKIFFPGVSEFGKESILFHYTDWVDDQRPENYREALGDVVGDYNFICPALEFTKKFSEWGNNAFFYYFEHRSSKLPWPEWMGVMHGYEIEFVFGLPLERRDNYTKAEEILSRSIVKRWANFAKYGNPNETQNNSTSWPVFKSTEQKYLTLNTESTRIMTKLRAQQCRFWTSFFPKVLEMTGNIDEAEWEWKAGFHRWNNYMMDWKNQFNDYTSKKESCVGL
The test can be described thus: biochemical. On the procedure: as §1

Test [6] has as its system tyrosinase. Conditions: cited from earlier work.
In test [7] the test system is AChE. To be noted: cited from earlier work.
In test [8] the test system is BChE. Conditions: cited from earlier work.
[9] abbreviates: Ellman method, read-out: AChE IC50 (converted).
[10] abbreviates: Ellman method, 37 °C, read-out: BChE IC50 (converted).

Where two headings read alike, the source gives them in different places. Marks after values point to notes of the source that are not given here.

T1 sequence (P22303 32-614, species assumed): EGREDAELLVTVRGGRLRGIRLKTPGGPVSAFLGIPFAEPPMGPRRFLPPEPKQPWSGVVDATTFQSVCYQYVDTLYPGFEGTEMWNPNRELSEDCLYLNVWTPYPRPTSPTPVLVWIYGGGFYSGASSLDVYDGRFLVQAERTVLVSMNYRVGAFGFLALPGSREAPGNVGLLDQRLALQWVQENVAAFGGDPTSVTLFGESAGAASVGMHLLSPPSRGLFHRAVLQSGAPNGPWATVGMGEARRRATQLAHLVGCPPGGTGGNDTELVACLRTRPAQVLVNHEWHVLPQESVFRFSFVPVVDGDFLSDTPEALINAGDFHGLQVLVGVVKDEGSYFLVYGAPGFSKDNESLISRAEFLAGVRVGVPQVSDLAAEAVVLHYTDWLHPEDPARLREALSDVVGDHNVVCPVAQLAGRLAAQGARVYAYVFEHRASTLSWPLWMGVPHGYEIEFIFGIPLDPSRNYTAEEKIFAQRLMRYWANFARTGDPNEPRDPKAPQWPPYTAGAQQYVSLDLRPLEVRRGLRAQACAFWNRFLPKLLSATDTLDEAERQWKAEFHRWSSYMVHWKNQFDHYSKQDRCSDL

What is called IC50 is the point on the concentration scale where inhibition reaches its midpoint. In test [1], `Cc1c(O)cc2c(c1O)C(=O)OC2` [5,7-dihydroxy-6-methylphthalide] came in with an FRAP of 36.91 ± 0.0 μmol Trolox/g lichen. In addition, the ORAC in test [2] was determined as 373.65 ± 1.05 μmol Trolox/g lichen. In addition, the “DPPH antiradical activity (IC50)” value in test [3] amounted to 12.52 ± 0.02 µg/mL. For the same compound, the IC50 was 70.5 µM in test [4] (setting [9]) and 108 µM in test [5] (setting [10]).
Take `CC(=O)C1=C(O)C=C2Oc3c(C(C)=O)c(O)c(C)c(O)c3[C@@]2(C)C1=O` [(+) usnic acid]: the tyrosinase inhibition in test [6] (at the dose of 250 μg/mL) is reported as 9.1%.
Regarding `Cc1cc(O)c(C=O)c(O)c1` [Atranol, atranol], in test [1], the FRAP is reported as 29.32 ± 0.0 ^a μmol Trolox/g lichen. The compound also yielded an ORAC in test [2] of 176.28 ± 0.84 μmol Trolox/g lichen. The “DPPH antiradical activity (IC50)” value in test [3] was 21.04 ± 0.02 µg/mL. In addition, the concentration for half-maximal inhibition (IC50) in test [4] (setting [9]) is 189 µM; in test [5] (setting [10]) it was 239 µM.
The matching figures for `Cc1cc(O)c(C=O)c(O)c1C(=O)OCc1cc(O)c(C=O)c(O)c1C(=O)O` [Barbatolic acid, barbatolic acid]: 28.10 ± 0.0 ^a μmol Trolox/g lichen, 101.11 ± 0.71 μmol Trolox/g lichen, 62.55 ± 0.01 µg/mL, 44.6 µM and 61.4 µM.
`O=C(O)c1cc(O)c(O)c(O)c1` [Gallic acid, reference compound] gave an FRAP in test [1] of 45.5 ± 0.00 μmol Trolox/g lichen. For the same compound, in test [3], the “DPPH antiradical activity (IC50)” value came out at 2.24 ± 0.04 µg/mL.
In test [1], `CC(=O)c1c(O)c(C)c(O)c2c1OC1=CC(=O)C(C(C)=O)C(=O)C12C` (stereo not drawn) [Usnic acid] displayed an FRAP of 22.4 ± 0.00 μmol Trolox/g lichen. The same compound came in with an ORAC in test [2] of 122.73 ± 1.0 μmol Trolox/g lichen. The “DPPH antiradical activity (IC50)” value in test [3] stood at 55.25 ± 0.04 µg/mL. Moreover, the 50% inhibitory concentration (IC50) in test [4] (AChE IC50, Ellman method) was 6.42 µM; in test [5] it was 12.7 µM; in test [7] (reported previously), 1.27 nM; in test [8] (reported previously), 3.4 nM.
On to `Cc1cc(O)c(C=O)c2c1C(=O)Oc1c(COC(=O)/C=C/C(=O)O)c(O)c(C(=O)O)c(C)c1O2` [fumarprotocetraric acid], for which the “inhibition of tyrosinase activity” value in test [6] (at 0.6 mM) is on record as 39.8%.
For the compound `C[C@@H]1O[C@@H](O[C@@H]2C(=O)c3c(O)cc(O)cc3O[C@@H]2c2ccc(O)c(O)c2)[C@H](O)[C@H](O)[C@H]1O` [isoastilbin], in test [7] (at 2.2 µM), the AChE inhibition is 51.70%. In test [8] (at 2.2 µM), the BChE inhibition was 50.10%.
In the case of `Cc1cc(OC(=O)c2c(C)cc(O)cc2O)cc(O)c1C(=O)O` [lecanoric acid], the “inhibition of tyrosinase activity” value in test [6] was 82.69%.
Take `Cc1cc(O)cc(O)c1C(=O)O` [orsellinic acid, 2,4-dihydroxy-6-methylbenzoic acid]: the “inhibition of tyrosinase activity” value in test [6] is recorded as 63.35%.
